Among the data in patent US20230159463A1, “BENZONITRIC HETEROCYCLIC COMPOUND, PREPARATION METHOD THEREFOR AND USE THEREOF” (SHANGHAI ZHONGZE THERAPEUTICS, CO. LTD., priority 2020, published 2023) are IC50 values, retold here.

One assay has as its target T1, HDAC6 (Homo sapiens, UniProt Q9UBN7).
T1 construct: purchased Biovision Company
T1 sequence (Q9UBN7 1-1215): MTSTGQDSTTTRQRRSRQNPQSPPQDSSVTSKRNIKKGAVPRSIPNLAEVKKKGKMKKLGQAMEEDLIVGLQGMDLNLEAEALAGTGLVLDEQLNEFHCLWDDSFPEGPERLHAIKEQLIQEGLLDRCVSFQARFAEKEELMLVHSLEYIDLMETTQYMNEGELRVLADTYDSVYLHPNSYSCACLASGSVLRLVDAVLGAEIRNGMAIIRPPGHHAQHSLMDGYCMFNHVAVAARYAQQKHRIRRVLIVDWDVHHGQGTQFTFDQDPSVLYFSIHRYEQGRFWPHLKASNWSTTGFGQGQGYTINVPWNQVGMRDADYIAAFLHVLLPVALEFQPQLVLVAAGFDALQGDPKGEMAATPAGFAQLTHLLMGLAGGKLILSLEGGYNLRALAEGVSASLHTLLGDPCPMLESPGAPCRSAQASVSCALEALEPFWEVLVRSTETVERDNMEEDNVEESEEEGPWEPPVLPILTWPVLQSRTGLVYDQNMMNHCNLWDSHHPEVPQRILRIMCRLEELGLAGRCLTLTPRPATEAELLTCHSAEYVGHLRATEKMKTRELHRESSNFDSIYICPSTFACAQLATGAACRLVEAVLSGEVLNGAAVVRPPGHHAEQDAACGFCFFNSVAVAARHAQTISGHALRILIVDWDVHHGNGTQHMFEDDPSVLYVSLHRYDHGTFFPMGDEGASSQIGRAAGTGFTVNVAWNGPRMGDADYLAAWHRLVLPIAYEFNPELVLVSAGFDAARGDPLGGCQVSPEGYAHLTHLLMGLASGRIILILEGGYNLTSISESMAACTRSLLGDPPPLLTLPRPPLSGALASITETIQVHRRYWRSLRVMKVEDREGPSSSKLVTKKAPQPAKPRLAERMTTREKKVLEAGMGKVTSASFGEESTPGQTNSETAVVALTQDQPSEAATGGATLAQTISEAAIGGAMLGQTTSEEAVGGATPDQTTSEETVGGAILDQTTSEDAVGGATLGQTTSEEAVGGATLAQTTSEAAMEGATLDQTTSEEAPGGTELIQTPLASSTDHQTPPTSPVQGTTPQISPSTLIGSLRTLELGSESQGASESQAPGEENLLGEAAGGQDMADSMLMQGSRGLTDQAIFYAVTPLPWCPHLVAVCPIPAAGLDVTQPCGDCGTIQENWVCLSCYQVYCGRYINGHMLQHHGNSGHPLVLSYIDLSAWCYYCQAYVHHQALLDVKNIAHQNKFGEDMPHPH
Description: HDAC6 inhibitor screening kit (Biovision), in vitro inhibitory activity. In kind it is biochemical. On the procedure: (§1) The in vitro inhibitory activity of histone deacetylase of the compound was determined according to the instructions of HDAC1 and HDAC6 inhibitor screening kit (Biovision Company).

The next assay deals with T2, HDAC1 (Homo sapiens, UniProt Q13547).
T2 construct: purchased Biovision Company
Briefly: HDAC1 inhibitor screening kit (Biovision), in vitro inhibitory activity. In kind it is biochemical. On the procedure: as §1

T2 sequence (Q13547 whole entry): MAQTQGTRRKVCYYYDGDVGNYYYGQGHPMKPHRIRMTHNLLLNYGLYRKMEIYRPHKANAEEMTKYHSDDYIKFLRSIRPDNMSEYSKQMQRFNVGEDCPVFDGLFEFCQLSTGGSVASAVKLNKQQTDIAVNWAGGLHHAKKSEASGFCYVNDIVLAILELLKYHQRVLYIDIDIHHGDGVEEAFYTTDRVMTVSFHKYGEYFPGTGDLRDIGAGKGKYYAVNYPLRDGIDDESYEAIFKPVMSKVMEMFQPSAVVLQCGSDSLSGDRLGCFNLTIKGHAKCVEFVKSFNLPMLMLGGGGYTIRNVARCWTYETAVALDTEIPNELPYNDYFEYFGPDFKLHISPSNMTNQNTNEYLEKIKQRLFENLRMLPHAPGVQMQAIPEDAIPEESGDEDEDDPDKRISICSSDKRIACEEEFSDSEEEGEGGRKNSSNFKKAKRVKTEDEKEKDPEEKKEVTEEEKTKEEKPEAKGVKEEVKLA

On to `O=C(NO)c1ccc(CN2CCCCc3ccc(Cl)cc32)cc1` [Compound T-1, 4-((8-chloro-2,3,4,5-tetrahydro-1H-benzo[b]azepin-1-yl)methyl)-N-hydroxybenzamide], for which the IC50 at HDAC6 was 37 nM; at HDAC1, above 500 nM.
The corresponding values for `O=C(NO)c1ccc(CN2CCCCc3ccc(Br)cc32)cc1` [Compound T-3, 4-((8-bromo-2,3,4,5-tetrahydro-1H-benzo[b]azepin-1-yl)methyl)-N-hydroxybenzamide] are 43 nM and 400 nM.
The corresponding values for `O=C(NO)c1ccc(CN2CCCCc3cc(F)ccc32)cc1` [Compound T-4, 4-((7-fluoro-2,3,4,5-tetrahydro-1H-benzo[b]azepin-1-yl)methyl)-N-hydroxybenzamide] are 8.2 nM and 414 nM.
On to `COc1ccc2c(c1)N(Cc1ccc(C(=O)NO)cc1)CCCC2` [Compound T-6, 4-((8-methoxy-2,3,4,5-tetrahydro-1H-benzo[b]azepin-1-yl)methyl)-N-hydroxybenzamide], for which the values for the IC50 against HDAC6 and against HDAC1 were 8.2 nM and 294 nM, respectively.
The corresponding values for `COc1cccc2c1CCCCN2Cc1ccc(C(=O)NO)cc1` [Compound T-7, 4-((6-methoxy-2,3,4,5-tetrahydro-1H-benzo[b]azepin-1-yl)methyl)-N-hydroxybenzamide] are 6.5 nM and 277 nM.
The corresponding values for `COc1cccc2c1N(Cc1ccc(C(=O)NO)cc1)CCCC2` [Compound T-8, 4-((9-methoxy-2,3,4,5-tetrahydro-1H-benzo[b]azepin-1-yl)methyl)-N-hydroxybenzamide] are 9.2 nM and 287 nM.
Taken in the same sequence, the figures for `COc1cc2c(cc1OC)N(Cc1ccc(C(=O)NO)cc1)CCCC2` [Compound T-9, 4-((7,8-dimethoxy-2,3,4,5-tetrahydro-1H-benzo[b]azepin-1-yl)methyl)-N-hydroxybenzamide] were 8.6 nM and 269 nM.
Regarding `O=C(NO)c1ccc(CN2CCCCc3ccc(-c4ccccc4)cc32)cc1` [Compound T-10, 4-((8-phenyl-2,3,4,5-tetrahydro-1H-benzo[b]azepin-1-yl)methyl)-N-hydroxybenzamide], the IC50 against HDAC6 is 129 nM; against HDAC1, above 500 nM.
The corresponding values for `O=C(NO)c1ccc(CN2CCCCc3ccc(-c4ccncc4)cc32)cc1` [Compound T-11, 4-((8-(pyridin-4-yl)-2,3,4,5-tetrahydro-1H-benzo[b]azepin-1-yl)methyl)-N-hydroxybenzamide] are 14.3 nM and above 500 nM.
The corresponding values for `O=C(NO)c1ccc(CN2CCCCc3ccc(C4CC4)cc32)cc1` [Compound T-12, 4-((8-cyclopropyl-2,3,4,5-tetrahydro-1H-benzo[b]azepin-1-yl)methyl)-N-hydroxybenzamide] are 45 nM and above 500 nM.
The corresponding values for `CN(C)c1ccc2c(c1)N(Cc1ccc(C(=O)NO)cc1)CCCC2` [Compound T-13, 4-((8-dimethylamino-2,3,4,5-tetrahydro-1H-benzo[b]azepin-1-yl)methyl)-N-hydroxybenzamide] are 85 nM and above 500 nM.
As to `O=C(NO)c1ccc(CN2CCCCc3ccc(N4CCCCC4)cc32)cc1` [Compound T-14, 4-((8-(piperidin-1-yl)-2,3,4,5-tetrahydro-1H-benzo[b]azepin-1-yl)methyl)-N-hydroxybenzamide], the IC50 is 142 nM at HDAC6 and above 500 nM against HDAC1.
With `CN1CCCN(Cc2ccc(C(=O)NO)cc2)c2ccccc21` [Compound T-17], the concentration for half-maximal inhibition (IC50) against HDAC6 is 7.4 nM; against HDAC1, above 500 nM.
The corresponding values for `O=C(NO)c1ccc(CN2CCCC(=O)c3ccccc32)cc1` [Compound T-18, 4-((5-oxo-2,3,4,5-tetrahydro-1H-benzo[b]azepin-1-yl)methyl)-N-hydroxybenzamide] are 7.2 nM and 421 nM.
